Patent publication US8673849B2, “Lactadherin-derived peptides as antiviral agents” (priority 2010, dated 2014)
Where a SMILES comes first, the peptide text is derived from it. Where no end group is shown, it is not given here.

B1: bovine lactadherin: bovine lactadherin, glycoprotein of milk fat globule membranes, 427 amino acid residues (protein, UniProt Q95114 19-427, looked up)
Lactadherin: ASGDFCDSSLCLHGGTCLLNEDRTPPFYCLCPEGFTGLLCNETEHGPCFPNPCHNDAECQVTDDSHRGDVFIQYICKCPLGYVGIHCETTCTSPLGMQTGAIADSQISASSMHLGFMGLQRWAPELARLHQTGIVNAWTSGNYDKNPWIQVNLMRKMWVTGVVTQGASRAGSAEYLKTFKVAYSTDGRQFQFIQVAGRSGDKIFIGNVNNSGLKINLFDTPLETQYVRLVPIICHRGCTLRFELLGCELNGCTEPLGLKDNTIPNKQITASSYYKTWGLSAFSWFPYYARLDNQGKFNAWTAQTNSASEWLQIDLGSQKRVTGIITQGARDFGHIQYVAAYRVAYGDDGVTWTEYKDPGASESKIFPGNMDNNSHKKNIFETPFQARFVRIQPVAWHNRITLRVELLGC
B2: human lactadherin: purified human lactadherin, glycoprotein of milk fat globule membranes, 387 amino acids (protein, UniProt Q08431 24-387, looked up)
Lactadherin: LDICSKNPCHNGGLCEEISQEVRGDVFPSYTCTCLKGYAGNHCETKCVEPLGLENGNIANSQIAASSVRVTFLGLQHWVPELARLNRAGMVNAWTPSSNDDNPWIQVNLLRRMWVTGVVTQGASRLASHEYLKAFKVAYSLNGHEFDFIHDVNKKHKEFVGNWNKNAVHVNLFETPVEAQYVRLYPTSCHTACTLRFELLGCELNGCANPLGLKNNSIPDKQITASSSYKTWGLHLFSWNPSYARLDKQGNFNAWVAGSYGNDQWLQVDLGSSKEVTGIITQGARNFGSVQFVASYKVAYSNDSANWTEYQDPRTGSSKIFPGNWDNHSHKKNLFETPILARYVRILPVAWHNRIALRLELLGC

Key:
[1] = tested on: human rotavirus strain Wa; format: cell-based; conditions: for anti-rotavirus activity (in words): statement on Table 6
Protocol: To cultivate the rotavirus, the cell line MA-104 (monkey foetal kidney cells), obtained from the Cell Substrata Centre of the Experimental Animal Disease Institute, Brescia, Italy, was used. This cell line is cultured as a monolayer in EAGLE minimum essential medium (MEM) containing 5% heat-inactivated (56° C. for 30 minutes) bovine foetal serum (Sigma) and is maintained at 37° C. at 5% CO2.
For the in vitro infection assay, the cell line MA-104 and the human rotavirus strain Wa (TC adapted), obtained from the American Type Culture Collection (ATCC VR-2018) and propagated in MA-104 cells, were used.
To set up the assay, cells were seeded in 96-well plates and, once 80% confluence was achieved, were pre-treated for 1 hour with increasing concentrations of RGD- and/or DGE-containing peptides or their mutated counterparts and incubated at 37° C. The peptides containing the RGD or the DGE motif were used either alone or in combination. Cells were then washed with medium and infected with the pre-activated virus (5 μg/ml tripsin for 30 minutes at 37° C.) in the presence of the peptides. After a 1 hour incubation cells were washed with medium and incubated in medium containing 0.5 μg/ml tripsin and the peptides at 37° C. for 20 hours. The infected cells were visualised through an immunoperoxidase assay, using murine monoclonal antibodies specific for the capsidic protein VP6 of the rotavirus (Abcam) and the kit “UltraTech HRP Streptavidin-Biotin detection system” (Beckman Coulter). The infected cells were counted by observation under the optical microscope and the percentage of infection calculated by comparison of treated with non-treated cells.

[2] = tested on: simian rotavirus strain SA11; conditions: MA104 cells, dose-dependent; Graham et al.; cited from earlier work
[3] = biological target: integrin proteins on the cell surface
[4] = biological target: integrin proteins on the cell surface; remark: listed apart in the source
modified porcine trypsin = biological target: T1, modified porcine trypsin (Sus scrofa, UniProt P00761); format: in vitro ADME
T1 construct: purchased Promega
Protocol: The peptide SEQ ID NO: 1 was dissolved in ultra pure H2O to obtain a final concentration of 10 mg/ml. Dilutions from 1:10 to 1:10,000 were obtained. All concentrations were tested by MALDI-TOF analyses. 0.5 μl of samples from dilutions 1:10, 1:100, 1:1,000, 1:10,000 were spotted onto a MALDI target plate and left to dry at RT. 0.5 μl of α-cyano-4-hydroxy-cinnamic acid in 30% acetonitrile, 0.1% TFA (HCCA matrix solution) were added to each sample and left to dry under vacuum. Spectra were obtained using a Bruker Ultraflex II MALDI-TOF/TOF mass spectrometer (Bruker Daltonics) in reflectron and positive ion mode. External calibration was performed using “Peptide calibration standard” from Bruker Daltonics.
To evaluate the digestibility of the SEQ ID NO: 1 peptide with trypsin, […] of a 0.2 μg/μl solution (25 mM NH4HCO3) of modified porcine trypsin (Promega) were added to 150 μl of the 10 mg/ml peptide solution ((25 mM NH4HCO3) enzyme to protein ratio 1:100). The sample was incubated at 37° C. and 0.5 μl were collected at different time of digestion: 5′, 15′, 30′, 60′ 90′ 120′. Each samples was spotted on MALDI target and spectra were collected as already described in Example 4a. In FIG. 5 the time course experiment evaluated by MALDI TOF analyses is shown.

rotavirus = conditions: purified lactadherin; Kvistgaard et al., 2004; cited from earlier work
[5] = biological target: integrin proteins on the cell surface; remark: listed apart in the source
[6] = biological target: integrin proteins on the cell surface; remark: listed apart in the source
[7] = biological target: integrin proteins on the cell surface; remark: listed apart in the source

T1 sequence (P00761 9-231): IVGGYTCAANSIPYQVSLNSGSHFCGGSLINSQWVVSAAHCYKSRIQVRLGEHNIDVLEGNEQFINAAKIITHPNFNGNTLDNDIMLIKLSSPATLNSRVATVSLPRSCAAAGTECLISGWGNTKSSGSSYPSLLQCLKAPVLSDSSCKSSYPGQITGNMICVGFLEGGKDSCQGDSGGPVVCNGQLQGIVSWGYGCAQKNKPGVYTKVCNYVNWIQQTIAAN

Row | Molecule | IC50 [1] [µM] | IC50 (μg/ml) [1] [µg/mL] | IC50 (µg/ml), inhibition of human rotavirus Wa infection of MA-104 cells [3] [µg/mL] | also measured
1 | C[C@H](NC(=O)[C@H](CCC(=O)O)NC(=O)CNC(=O)[C@@H](N)CC(=O)O)C(=O)O [DGEA, D-G-E-A, reference compound] (H-DGEA-OH; N-terminus and C-terminus assumed) | 311 | 121.4 | – | inhibition of rotavirus binding to and infection of cells (in words) [2]: inhibit
2 | Control peptide D-G-E-A (Graham et al.) | – | – | 121 | IC50 (µM), inhibition of human rotavirus Wa infection of MA-104 cells [3]: 311 µM
3 | Dendrimeric peptide of formula (VII): [[(HRGDVFT)2-Lys][(NDGECHV)2-Lys]]-Lys-β-Ala-NH2 | – | – | – | IC50, inhibition of rotavirus infection, infected cells counted by immunoperoxidase [4]: 3.6 µM
4 | EVRGDVFP [Hu-RGD, E-V-R-G-D-V-F-P, reference compound] | 104 | 95.3 | – | –
5 | GPRP | – | – | – | inhibition of rotavirus binding to and infection of cells (in words) [2]: inhibit
6 | NNDGECHVIDDSHRGDVFTQ [SEQ ID NO: 7] | 13.5 | 30.51 | – | anti-rotavirus activity (in words) [1]: show antiviral activity
7 | QNAGECHV [pAGE, Q-N-A-G-E-C-H-V, reference compound] | 257 | 219.6 | – | –
8 | QNAGECHVIDDSHRGEVFTQ [SEQ ID NO: 10] | > 220 | >500 | – | anti-rotavirus activity (in words) [1]: completely lost any anti-rotavirus activity
9 | QNDGECHV [SEQ ID NO: 3, Q-N-D-G-E-C-H-V] | 17.3 | 15.6 | – | –
10 | QNDGECHVIDDSDRGDVFTQ [SEQ ID NO: 11] | 10.5 | 23.90 | – | anti-rotavirus activity (in words) [1]: maintains its anti-rotavirus activity
11 | QNDGECHVIDDSHRGDVFQT [SEQ ID NO: 9] | 4.17 | 9.469 | – | anti-rotavirus activity (in words) [1]: show antiviral activity
12 | QNDGECHVIDDSHRGDVFSQ [SEQ ID NO: 8] | 6.35 | 14.43 | – | anti-rotavirus activity (in words) [1]: show antiviral activity
13 | QNDGECHVIDDSHRGDVFTQ [SEQ ID NO: 1, QNDGECHVIDDSHRGDVFTQ] | 1.72 | 3.9 | – | integrity of the peptide on trypsin digestion (modified porcine trypsin): didn't affect the integrity
14 | SHRGDVFI [Bo-RGD, S-H-R-G-D-V-F-I, reference compound] | 395 | 367.1 | – | –
15 | SHRGDVFT [SEQ ID NO: 5, S-H-R-G-D-V-F-T] | 111 | 101.5 | – | –
16 | SHRGEVFT [pRGE, S-H-R-G-E-V-F-T, reference compound] | 600 | 558.5 | – | –
17 | pAGE: Q-N-A-G-E-C-H-V (DGE -> AGE mutation) (peptide) | – | – | 220 | IC50 (µM), inhibition of human rotavirus Wa infection of MA-104 cells [3]: 257 µM
18 | pRGE: S-H-R-G-E-V-F-T (RGD -> RGE mutation) (peptide) | – | – | 558 | IC50 (µM), inhibition of human rotavirus Wa infection of MA-104 cells [3]: 600 µM
19 | EVRGDVFP (not fully specified) [Hu-RGD: E-V-R-G-D-V-F-P] | – | – | 95.3 | IC50 (µM), inhibition of human rotavirus Wa infection of MA-104 cells [3]: 104 µM
20 | SHRGDVFI (not fully specified) [Bo-RGD: S-H-R-G-D-V-F-I] | – | – | 367 | IC50 (µM), inhibition of human rotavirus Wa infection of MA-104 cells [3]: 395 µM
21 | B1 | – | – | – | activity against rotavirus infection (in words) (rotavirus): does not possess this activity
22 | SHRGDVFT (not fully specified) [peptidic compound of SEQ ID NO: 5 (S-H-R-G-D-V-F-T)] | – | – | 102 | IC50 (µM), inhibition of human rotavirus Wa infection of MA-104 cells, infected cells counted by immunoperoxidase [3]: 111 µM; % of inhibition of rotavirus infection at 100 µg/ml (93.3 µM), one representative experiment (% of inhibition) [5]: 46.9
23 | QNDGECHV (not fully specified) [peptidic compound of SEQ ID NO: 3 (Q-N-D-G-E-C-H-V)] | – | – | 15.6 | IC50 (µM), inhibition of human rotavirus Wa infection of MA-104 cells [3]: 17.3 µM; % of inhibition of rotavirus infection at 100 µg/ml (96.6 µM), one representative experiment (% of inhibition) [6]: 52.7
24 | B2 | – | – | – | activity against rotavirus infection (in words) (rotavirus): active against rotavirus infection
25 | QNDGECHVIDDSHRGDVFTQ (not fully specified) [peptidic compound of SEQ ID NO: 1 (QNDGECHVIDDSHRGDVFTQ)] | – | – | 3.9 | IC50 (µM), inhibition of human rotavirus Wa infection of MA-104 cells [3]: 1.72 µM; % of inhibition of rotavirus infection at 100 µg/ml (36.6 µM), one representative experiment (% of inhibition) [7]: 61
